The data set can be described thus: logP determination. The format is physicochemical. The note with it: for logP: Table 1 logP.

Molecules are shown by their SMILES.

As for `COC(=O)CN(CCCF)c1c(-c2cccc3c2OC(F)(F)O3)c(Cl)nc2ncnn12` [Example 1], the “log P (S)” value (log P (S), stated in the preparation example) was 2.93. By logP is commonly meant a log measure of how a compound divides between an organic and an aqueous phase. Lower therefore signals lower lipophilicity. In turn, `CN(C)C(=O)CN(CCCF)c1c(-c2cc(C(F)(F)F)ccc2Cl)c(Cl)nc2ncnn12` [Example 2] showed a logP of 2.77. On the same count and under the same terms, to `CN(C)C(=O)CN(CCCF)c1c(-c2cc(C(F)(F)F)ccc2C(F)(F)F)c(Cl)nc2ncnn12` [Example 3] belongs 2.89. Regarding `CN(C)C(=O)CN(CCCF)c1c(-c2c(Cl)c(F)cc(C(F)(F)F)c2Cl)c(Cl)nc2ncnn12` [Example 4], the log partition coefficient (logP) was 3.01. The same measure, in the same setting: to `CN(C)C(=O)CN(CCCF)c1c(-c2ccc(C(F)(F)F)cc2F)c(Cl)nc2ncnn12` [Example 5] belongs 2.71; to `CN(C)C(=O)CN(CCCF)c1c(-c2cc(SC(F)(F)F)ccc2Cl)c(Cl)nc2ncnn12` [Example 6], 3.14; to `CN(C)C(=O)CN(CCCF)c1c(-c2cccc(C(F)(F)F)c2Cl)c(Cl)nc2ncnn12` [Example 7], 2.71. `CN(C)C(=O)CN(CCCF)c1c(-c2cccc3c2OC(F)(F)O3)c(Cl)nc2ncnn12` [Example 8] returned a logP of 2.52. Compound `CN(C)C(=O)CN(CCCF)c1c(-c2ccc(C(F)(F)F)c(F)c2F)c(Cl)nc2ncnn12` [Example 9] came in with a logP of 2.86.

Take `COC(=O)CN(CCCF)c1c(-c2cc(C(F)(F)F)ccc2Cl)c(Cl)nc2ncnn12` [Example 10]: the logP is listed as 3.23. In turn, `COC(=O)CN(CCCF)c1c(-c2c(Cl)c(F)cc(C(F)(F)F)c2Cl)c(Cl)nc2ncnn12` [Example 12] yielded a lipophilicity (logP) of 3.58. On to `COC(=O)CN(CCCF)c1c(-c2ccc(C(F)(F)F)cc2F)c(Cl)nc2ncnn12` [Example 13], for which the log partition coefficient (logP) stood at 3.17. The same measure, in the same setting: to `COC(=O)CN(CCCF)c1c(-c2cc(SC(F)(F)F)ccc2Cl)c(Cl)nc2ncnn12` [Example 14] belongs 3.57.

Compound `COC(=O)CN(CCCF)c1c(-c2cccc(C(F)(F)F)c2Cl)c(Cl)nc2ncnn12` [Example 15] had a logP of 3.17.

As for `COC(=O)CN(CCCF)c1c(-c2ccc(C(F)(F)F)c(F)c2F)c(Cl)nc2ncnn12` [Example 16], the logP is reported as 3.29. `COC(CN(CCCF)c1c(-c2cc(C(F)(F)F)ccc2Cl)c(Cl)nc2ncnn12)OC` [Example 17] had a lipophilicity (logP) of 3.54. Consider `COC(CN(CCCF)c1c(-c2c(Cl)c(F)cc(C(F)(F)F)c2Cl)c(Cl)nc2ncnn12)OC` [Example 19], for which the lipophilicity (logP) was determined as 3.82. Compound `COC(CN(CCCF)c1c(-c2ccc(C(F)(F)F)cc2F)c(Cl)nc2ncnn12)OC` [Example 20] showed a lipophilicity (logP) of 3.41. In turn, `COC(CN(CCCF)c1c(-c2cc(SC(F)(F)F)ccc2Cl)c(Cl)nc2ncnn12)OC` [Example 21] came in with a logP of 3.90. Same read-out and setting: the value for `COC(CN(CCCF)c1c(-c2cccc(C(F)(F)F)c2Cl)c(Cl)nc2ncnn12)OC` [Example 22] was 3.42. On the same count and under the same terms, to `COC(CN(CCCF)c1c(-c2cccc3c2OC(F)(F)O3)c(Cl)nc2ncnn12)OC` [Example 23] belongs 3.24. On to `COC(CN(CCCF)c1c(-c2ccc(C(F)(F)F)c(F)c2F)c(Cl)nc2ncnn12)OC` [Example 24], for which the logP was 3.55. The same measure, in the same setting: to `CCOC(CN(CCCF)c1c(-c2cc(C(F)(F)F)ccc2Cl)c(Cl)nc2ncnn12)OCC` [Example 25] belongs 4.10; to `CCOC(CN(CCCF)c1c(-c2c(Cl)c(F)cc(C(F)(F)F)c2Cl)c(Cl)nc2ncnn12)OCC` [Example 27], 4.45; to `CCOC(CN(CCCF)c1c(-c2ccc(C(F)(F)F)cc2F)c(Cl)nc2ncnn12)OCC` [Example 28], 4.04. On the same count and under the same terms, to `CCOC(CN(CCCF)c1c(-c2cc(SC(F)(F)F)ccc2Cl)c(Cl)nc2ncnn12)OCC` [Example 29] belongs 4.47; to `CCOC(CN(CCCF)c1c(-c2cccc(C(F)(F)F)c2Cl)c(Cl)nc2ncnn12)OCC` [Example 30], 4.00; to `CCOC(CN(CCCF)c1c(-c2cccc3c2OC(F)(F)O3)c(Cl)nc2ncnn12)OCC` [Example 31], 3.81. Still for that read-out and setting: the value for `CCOC(CN(CCCF)c1c(-c2ccc(C(F)(F)F)c(F)c2F)c(Cl)nc2ncnn12)OCC` [Example 32] was 4.16; that for `CC(=O)CN(CCCF)c1c(-c2cc(C(F)(F)F)ccc2Cl)c(Cl)nc2ncnn12` [Example 33] was 3.07; that for `CC(=O)CN(CCCF)c1c(-c2ccc(C(F)(F)F)cc2F)c(Cl)nc2ncnn12` [Example 36] was 3.01.

`CC(=O)CN(CCCF)c1c(-c2cc(SC(F)(F)F)ccc2Cl)c(Cl)nc2ncnn12` [Example 37] came in with a logP of 3.42.

`CC(=O)CN(CCCF)c1c(-c2cccc(C(F)(F)F)c2Cl)c(Cl)nc2ncnn12` [Example 38] yielded a logP of 3.01.

As to `CC(=O)CN(CCCF)c1c(-c2cccc3c2OC(F)(F)O3)c(Cl)nc2ncnn12` [Example 39], the log partition coefficient (logP) amounted to 2.80. Still for that read-out and setting: to `CC(=O)CN(CCCF)c1c(-c2ccc(C(F)(F)F)c(F)c2F)c(Cl)nc2ncnn12` [Example 40] belongs 3.14; to `C=C(Br)CN(CCCF)c1c(-c2cc(C(F)(F)F)ccc2Cl)c(Cl)nc2ncnn12` [Example 41], 3.92.

`C=C(Br)CN(CCCF)c1c(-c2cc(C(F)(F)F)ccc2C(F)(F)F)c(F)nc2ncnn12` [Example 42] showed a logP of 3.84. The logP values of the last two compounds are within 0.2 log units of each other.

As to `C=C(Br)CN(CCCF)c1c(-c2c(Cl)c(F)cc(C(F)(F)F)c2Cl)c(Cl)nc2ncnn12` [Example 43], the logP came out at 4.27. For the compound `C=C(Br)CN(CCCF)c1c(-c2ccc(C(F)(F)F)cc2F)c(Cl)nc2ncnn12` [Example 44], the logP was 3.85.

`C=C(Br)CN(CCCF)c1c(-c2cc(SC(F)(F)F)ccc2Cl)c(Cl)nc2ncnn12` [Example 45] showed a log partition coefficient (logP) of 4.36. Still for that read-out and setting: the value for `C=C(Br)CN(CCCF)c1c(-c2cccc(C(F)(F)F)c2Cl)c(F)nc2ncnn12` [Example 46] was 3.73; that for `C=C(Br)CN(CCCF)c1c(-c2cccc3c2OC(F)(F)O3)c(Cl)nc2ncnn12` [Example 47] was 3.69; that for `C=C(Br)CN(CCCF)c1c(-c2ccc(C(F)(F)F)c(F)c2F)c(Cl)nc2ncnn12` [Example 48] was 3.94. Consider `C=C(Cl)CN(CCCF)c1c(-c2cc(C(F)(F)F)ccc2Cl)c(Cl)nc2ncnn12` [Example 49], for which the logP is reported as 3.84. The logP values of the last two compounds are within 0.2 log units of each other. The same measure, in the same setting: the value for `C=C(Cl)CN(CCCF)c1c(-c2cc(C(F)(F)F)ccc2C(F)(F)F)c(F)nc2ncnn12` [Example 50] was 3.77; that for `C=C(Cl)CN(CCCF)c1c(-c2c(Cl)c(F)cc(C(F)(F)F)c2Cl)c(Cl)nc2ncnn12` [Example 51] was 4.19. In turn, `C=C(Cl)CN(CCCF)c1c(-c2ccc(C(F)(F)F)cc2F)c(Cl)nc2ncnn12` [Example 52] displayed a log partition coefficient (logP) of 3.77. Take `C=C(Cl)CN(CCCF)c1c(-c2cc(SC(F)(F)F)ccc2Cl)c(Cl)nc2ncnn12` [Example 53]: the logP is 4.27. On the same count and under the same terms, to `C=C(Cl)CN(CCCF)c1c(-c2cccc(C(F)(F)F)c2Cl)c(F)nc2ncnn12` [Example 54] belongs 3.66. `C=C(Cl)CN(CCCF)c1c(-c2cccc3c2OC(F)(F)O3)c(Cl)nc2ncnn12` [Example 55]: the logP is 3.61. The compound `C=C(Cl)CN(CCCF)c1c(-c2ccc(C(F)(F)F)c(F)c2F)c(Cl)nc2ncnn12` [Example 56] displayed a logP of 3.86. The same measure, in the same setting: the value for `COC(CN(CCCF)c1c(-c2c(F)cc(F)cc2C(F)(F)F)c(Cl)nc2ncnn12)OC` [Example 73] was 3.22. In turn, `COC(=O)CN(CCCF)c1c(-c2c(F)cc(F)cc2C(F)(F)F)c(Cl)nc2ncnn12` [Example 74] showed a lipophilicity (logP) of 2.92.

For the origin of these results see patent publication US20040097522A1, “Triazolopyrimidines” (priority 2000, published 2004).
